Patent publication US12516016B2, “GPX4 inhibitors, pharmaceutical compositions thereof, and their use for treating GPX4-mediated diseases” (EUBULUS BIOTHERAPEUTICS (HONG KONG) LIMITED, priority 2020, dated 2026)

System: hepatocellular carcinoma cell line Hub-7
Test: Cell proliferation assay (CELL-TITER GLO cell viability)
Format: cell-based
Settings: 24 h, Hub-7 cells, 24 h incubation, read-out: Inhibition of Cell Proliferation EC50
In short: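 […] cells (4,000/well) seeded overnight, then exposed 24 h to compound from 10 μM in 3-fold serial dilutions. Viability read by CELL-TITER GLO luminescence; EC50 values derived.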

In the case of `C#CC(=O)N(c1cccc(Cl)c1)C(C(=O)NCc1ccccc1)c1ccncc1` (centres unmarked) [A124], the EC50 is reported as 0.5 to 2 µM.

In the case of `CC#CC(=O)N(c1ccc2c(cnn2C)c1)C1(C(=O)NCc2ccccc2)CCOCC1` [A125, N-Benzyl-4-(N-(1-methyl-1H-indazol-5-yl)but-2-ynamido)tetrahydro-2H-pyran-4-carboxamide], the EC50 is reported as greater than 10 µM.

Work on `CC#CC(=O)N(c1ccc2c(cnn2C)c1)C1(C(=O)NCc2ccccc2)CCCOC1` (centres unmarked) [A126, N-Benzyl-3-(N-(1-methyl-1H-indazol-5-yl)but-2-ynamido)tetrahydro-2H-pyran-3-carboxamide] yielded an EC50 of 2 to 10 µM.

`CC#CC(=O)N(c1ccc2c(cnn2C)c1)C1(C(=O)NCc2ccccc2)CCCC(C(=O)OC)C1` (centres unmarked) [A127, Methyl3-(benzylcarbamoyl)-3-(N-(1-methyl-1H-indazol-5-yl)but-2-ynamido)-cyclohexane-1-carboxylate] showed an EC50 greater than 10 µM.

Compound `O=C(C#CCO)N(c1cccc(Cl)c1)C1(C(=O)NCc2ccccc2)CCOCC1` [A129, N-Benzyl-4-(N-(3-chlorophenyl)-4-hydroxybut-2-ynamido)tetrahydro-2H-pyran-4-carboxamide] has an EC50 greater than 10 µM.

Work on `O=C(C#CCO)N(c1cc(Cl)ccc1Cl)C1(C(=O)NCc2ccccc2)CCOCC1` [A130, N-Benzyl-4-(N-(2,5-dichlorophenyl)-4-hydroxybut-2-ynamido)tetrahydro-2H-pyran-4-carboxamide] yielded an EC50 greater than 10 µM.

With `Cn1ncc2cc(N(C(=O)C#CCO)C3(C(=O)NCc4ccccc4)CCOCC3)ccc21` [A131, N-Benzyl-4-(4-hydroxy-N-(1-methyl-1H-indazol-5-yl)but-2-ynamido)tetrahydro-2H-pyran-4-carboxamide] the EC50 was greater than 10 µM.

`CC#CC(=O)N(c1ccc(Cl)c(Cl)c1)C(C(=O)NCc1ccccc1)c1ccccc1` (centres unmarked) [A132, N-(2-(Benzylamino)-2-oxo-1-phenylethyl)-N-(3,4-dichlorophenyl)but-2-ynamide] gave an EC50 greater than 10 µM.

With `CC#CC(=O)N(c1cncc(Cl)c1)C(C(=O)NCc1ccccc1)c1ccccc1` (centres unmarked) [A133, N-(2-(Benzylamino)-2-oxo-1-phenylethyl)-N-(5-chloropyridin-3-yl)but-2-ynamide] the EC50 was greater than 10 µM.

With `C#CC(=O)N(c1cccc(-c2cc[nH]n2)c1)C(C(=O)NCc1ccccc1)c1ccccc1` (centres unmarked) [A134, N-(3-(1H-Pyrazol-3-yl)phenyl)-N-(2-(benzylamino)-2-oxo-1-phenylethyl)-propiolamide] the EC50 was no more than 0.1 µM.

Work on `C#CC(=O)N(c1cccc(-c2cc[nH]n2)c1)C1(C(=O)NCc2ccccc2)CCOCC1` [A135, 4-(N-(3-(1H-Pyrazol-3-yl)phenyl)propiolamido)-N-benzyltetrahydro-2H-pyran-4-carboxamide] yielded an EC50 of 0.1 to 0.5 µM.

`C#CC(=O)N(c1cccc(-c2ccn(C)n2)c1)C1(C(=O)NCc2ccccc2)CCOCC1` [A136, N-Benzyl-4-(N-(3-(1-methyl-1H-pyrazol-3-yl)phenyl)propiolamido)tetrahydro-2H-pyran-4-carboxamide] showed an EC50 of 0.1 to 0.5 µM.

With `C#CC(=O)N(Cc1cc[nH]n1)C1(C(=O)NCc2ccccc2)CCOCC1` [A137, 4-(N-((1H-Pyrazol-3-yl)methyl)propiolamido)-N-benzyltetrahydro-2H-pyran-4-carboxamide] the EC50 was greater than 10 µM.

`C#CC(=O)N(Cc1cccc(O)c1)C1(C(=O)NCc2ccccc2)CCOCC1` [A138, N-Benzyl-4-(N-(3-hydroxybenzyl)propiolamido)tetrahydro-2H-pyran-4-carboxamide] was tested, and the EC50 was no more than 0.1 µM.

Compound `C#CC(=O)N(c1ccccc1N1CCOCC1)C1(C(=O)NCc2ccccc2)CCOCC1` [A139, N-Benzyl-4-(N-(2-morpholinophenyl)propiolamido)tetrahydro-2H-pyran-4-carboxamide] has an EC50 of no more than 0.1 µM.

Compound `C#CC(=O)N(c1ccc(N(C)C)cc1)C1(C(=O)NCc2ccccc2)CCOCC1` [A140, N-Benzyl-4-(N-(4-(dimethylamino)phenyl)propiolamido)tetrahydro-2H-pyran-4-carboxamide] has an EC50 of 0.1 to 0.5 µM.

In the case of `C#CC(=O)N(c1cccc2c1OCO2)C1(C(=O)NCc2ccccc2)CCOCC1` [A141, 4-(N-(Benzo[d][1,3]dioxol-4-yl)propiolamido)-N-benzyltetrahydro-2H-pyran-4-carboxamide], the EC50 is reported as no more than 0.1 µM.

In the case of `C#CC(=O)N(c1cccc(Cl)c1)C(C(=O)NCC1CC1)c1ccccc1` (centres unmarked) [A142, N-(3-Chlorophenyl)-N-(2-((cyclopropylmethyl)amino)-2-oxo-1-phenylethyl)-propiolamide], the EC50 is reported as no more than 0.1 µM.

`C#CC(=O)N(c1ccc2c(c1)C(=O)OC2)C(C(=O)NCc1ccccc1)c1ccccc1` (centres unmarked) [A143, N-(2-(Benzylamino)-2-oxo-1-phenylethyl)-N-(3-oxo-1,3-dihydroisobenzofuran-5-yl)propiolamide] was tested, and the EC50 was no more than 0.1 µM.

In the case of `C#CC(=O)N(C1(C(=O)NCc2ccccc2)CCOCC1)C1(c2ccccc2)CC1` [A144, N-Benzyl-4-(N-(1-phenylcyclopropyl)propiolamido)tetrahydro-2H-pyran-4-carboxamide], the EC50 is reported as no more than 0.1 µM.

Work on `C#CC(=O)N(c1cc(Cl)ccc1Cl)C(C(=O)NCc1ccccc1)c1ccccc1` (centres unmarked) [A145, N-(2-(Benzylamino)-2-oxo-1-phenylethyl)-N-(2,5-dichlorophenyl)propiolamide] yielded an EC50 of no more than 0.1 µM.

For `C#CC(=O)N(c1cc2c(cc1I)OCO2)C(C(=O)NCc1ccccc1)c1ccccc1` (centres unmarked) [A146, N-(2-(Benzylamino)-2-oxo-1-phenylethyl)-N-(6-iodobenzo[d][1,3]dioxol-5-yl)-propiolamide], the EC50 was no more than 0.1 µM.

Work on `C#CC(=O)N(c1cccn2cnnc12)C(C(=O)NCc1ccccc1)c1ccccc1` (centres unmarked) [A147, N-([1,2,4]Triazolo[4,3-a]pyridin-8-yl)-N-(2-(benzylamino)-2-oxo-1-phenylethyl)-propiolamide] yielded an EC50 of 0.1 to 0.5 µM.

`C#CC(=O)N(c1cccc2c1CCC2=O)C1(C(=O)NCc2ccccc2)CCOCC1` [A148, N-Benzyl-4-(N-(1-oxo-2,3-dihydro-1H-inden-4-yl)propiolamido)tetrahydro-2H-pyran-4-carboxamide] gave an EC50 of no more than 0.1 µM.

In the case of `C#CC(=O)N(c1ccc2c(c1)C(=O)OC2)C1(C(=O)NCc2ccccc2)CCOCC1` [A149, N-Benzyl-4-(N-(3-oxo-1,3-dihydroisobenzofuran-5-yl)propiolamido)tetrahydro-2H-pyran-4-carboxamide], the EC50 is reported as no more than 0.1 µM.

`C#CC(=O)N(c1ccc2[nH]ncc2c1)C1(C(=O)NCc2ccccc2)CCOCC1` [A150, 4-(N-(1H-Indazol-5-yl)propiolamido)-N-benzyltetrahydro-2H-pyran-4-carboxamide] gave an EC50 of 0.1 to 0.5 µM.

For `C#CC(=O)N(c1ccc2c(c1)OCO2)C1(C(=O)NCc2ccccc2)CCOCC1` [A151, 4-(N-(Benzo[d][1,3]dioxol-5-yl)propiolamido)-N-benzyltetrahydro-2H-pyran-4-carboxamide], the EC50 was 0.1 to 0.5 µM.

`C#CC(=O)N(c1ccc2[nH]ccc2c1)C1(C(=O)NCc2ccccc2)CCOCC1` [A152, 4-(N-(1H-Indol-5-yl)propiolamido)-N-benzyltetrahydro-2H-pyran-4-carboxamide] gave an EC50 of 2 to 10 µM.

With `C#CC(=O)N(c1ccc2c(ccn2C)c1)C1(C(=O)NCc2ccccc2)CCOCC1` [A153, N-Benzyl-4-(N-(1-methyl-1H-indol-5-yl)propiolamido)tetrahydro-2H-pyran-4-carboxamide] the EC50 was no more than 0.1 µM.

With `C#CC(=O)N(c1ccc2ncn(C)c2c1)C1(C(=O)NCc2ccccc2)CCOCC1` [A154, N-Benzyl-4-(N-(1-methyl-1H-benzo[d]imidazol-6-yl)propiolamido)tetrahydro-2H-pyran-4-carboxamide] the EC50 was 0.5 to 2 µM.

`C#CC(=O)N(c1ccc2scnc2c1)C1(C(=O)NCc2ccccc2)CCOCC1` [A155, 4-(N-(Benzo[d]thiazol-5-yl)propiolamido)-N-benzyltetrahydro-2H-pyran-4-carboxamide] gave an EC50 of 0.1 to 0.5 µM.

`C#CC(=O)N(c1ccc2c(c1)ncn2C)C1(C(=O)NCc2ccccc2)CCOCC1` [A156, N-Benzyl-4-(N-(1-methyl-1H-benzo[d]imidazol-5-yl)propiolamido)tetrahydro-2H-pyran-4-carboxamide] gave an EC50 of 0.5 to 2 µM.

`C#CC(=O)N(c1ccc(OC)cc1OC)C1(C(=O)NCc2ccccc2)CCOCC1` [A157, N-Benzyl-4-(N-(2,4-dimethoxyphenyl)propiolamido)tetrahydro-2H-pyran-4-carboxamide] showed an EC50 of no more than 0.1 µM.

`C#CC(=O)N(C1CCC(=O)N(C)C1)C(C(=O)NCc1ccccc1)c1ccccc1` (centres unmarked) [A158, N-(2-(Benzylamino)-2-oxo-1-phenylethyl)-N-(1-methyl-6-oxopiperidin-3-yl)-propiolamide] showed an EC50 of 2 to 10 µM.

With `C#CC(=O)N(c1cccc(Cl)c1)C1(C(=O)NCS(=O)(=O)c2ccc(C)cc2)CCOCC1` [A159, 4-(N-(3-Chlorophenyl)propiolamido)-N-(tosylmethyl)tetrahydro-2H-pyran-4-carboxamide] the EC50 was 0.5 to 2 µM.

`C#CC(=O)N(c1cccc2cnn(C)c12)C(C(=O)NCc1ccccc1)c1ccccc1` (centres unmarked) [A160, N-(2-(Benzylamino)-2-oxo-1-phenylethyl)-N-(1-methyl-1H-indazol-7-yl)propiolamide] gave an EC50 of no more than 0.1 µM.

`C#CC(=O)N(c1cccc2nsnc12)C1(C(=O)NCc2ccccc2)CCOCC1` [A161, 4-(N-(Benzo[c][1,2,5]thiadiazol-4-yl)propiolamido)-N-benzyltetrahydro-2H-pyran-4-carboxamide] showed an EC50 of no more than 0.1 µM.

`C#CC(=O)N(c1ccc2c(cnn2C)c1)C1(C(=O)NCc2ccccc2)CCOCC1` [A162, N-Benzyl-4-(N-(1-methyl-1H-indazol-5-yl)propiolamido)tetrahydro-2H-pyran-4-carboxamide] was tested, and the EC50 was no more than 0.1 µM.

Work on `C#CC(=O)N(c1ccn2cnnc2c1)C1(C(=O)NCc2ccccc2)CCOCC1` [A163, 4-(N-([1,2,4]Triazolo[4,3-a]pyridin-7-yl)propiolamido)-N-benzyltetrahydro-2H-pyran-4-carboxamide] yielded an EC50 of 0.5 to 2 µM.

Compound `C#CC(=O)N(c1ccc2c(cnn2C)c1)C1(C(=O)NCc2ccccc2)CCC(=O)CC1` [A164, N-Benzyl-1-(N-(1-methyl-1H-indazol-5-yl)propiolamido)-4-oxocyclohexane-1-carboxamide] has an EC50 of no more than 0.1 µM.

In the case of `C#CC(=O)N(c1ccc2c(cnn2C)c1)C1(C(=O)NCc2ccccc2)CCCC(=O)C1` (centres unmarked) [A165, N-Benzyl-1-(N-(1-methyl-1H-indazol-5-yl)propiolamido)-3-oxocyclohexane-1-carboxamide], the EC50 is reported as 0.1 to 0.5 µM.
